Assay results published in article PMC8185074, “Anchor extension: a structure-guided approach to design cyclic peptides targeting enzyme active sites” (Nature Communications, 2021).
Peptide text beside a SMILES is read from it.

Columns and labels:
Assay type in all cases: biochemical
HDAC6 = target: T1, HDAC6 (Homo sapiens, UniProt Q9UBN7); assay: HDAC6 inhibition, full IC50 measurement (Reaction Biology; fluorogenic p53 peptide RHKK(Ac)AMC)
T1 construct: purchased Reaction Biology Corporation (assay run by the CRO)
T1 sequence (Q9UBN7 1-1215): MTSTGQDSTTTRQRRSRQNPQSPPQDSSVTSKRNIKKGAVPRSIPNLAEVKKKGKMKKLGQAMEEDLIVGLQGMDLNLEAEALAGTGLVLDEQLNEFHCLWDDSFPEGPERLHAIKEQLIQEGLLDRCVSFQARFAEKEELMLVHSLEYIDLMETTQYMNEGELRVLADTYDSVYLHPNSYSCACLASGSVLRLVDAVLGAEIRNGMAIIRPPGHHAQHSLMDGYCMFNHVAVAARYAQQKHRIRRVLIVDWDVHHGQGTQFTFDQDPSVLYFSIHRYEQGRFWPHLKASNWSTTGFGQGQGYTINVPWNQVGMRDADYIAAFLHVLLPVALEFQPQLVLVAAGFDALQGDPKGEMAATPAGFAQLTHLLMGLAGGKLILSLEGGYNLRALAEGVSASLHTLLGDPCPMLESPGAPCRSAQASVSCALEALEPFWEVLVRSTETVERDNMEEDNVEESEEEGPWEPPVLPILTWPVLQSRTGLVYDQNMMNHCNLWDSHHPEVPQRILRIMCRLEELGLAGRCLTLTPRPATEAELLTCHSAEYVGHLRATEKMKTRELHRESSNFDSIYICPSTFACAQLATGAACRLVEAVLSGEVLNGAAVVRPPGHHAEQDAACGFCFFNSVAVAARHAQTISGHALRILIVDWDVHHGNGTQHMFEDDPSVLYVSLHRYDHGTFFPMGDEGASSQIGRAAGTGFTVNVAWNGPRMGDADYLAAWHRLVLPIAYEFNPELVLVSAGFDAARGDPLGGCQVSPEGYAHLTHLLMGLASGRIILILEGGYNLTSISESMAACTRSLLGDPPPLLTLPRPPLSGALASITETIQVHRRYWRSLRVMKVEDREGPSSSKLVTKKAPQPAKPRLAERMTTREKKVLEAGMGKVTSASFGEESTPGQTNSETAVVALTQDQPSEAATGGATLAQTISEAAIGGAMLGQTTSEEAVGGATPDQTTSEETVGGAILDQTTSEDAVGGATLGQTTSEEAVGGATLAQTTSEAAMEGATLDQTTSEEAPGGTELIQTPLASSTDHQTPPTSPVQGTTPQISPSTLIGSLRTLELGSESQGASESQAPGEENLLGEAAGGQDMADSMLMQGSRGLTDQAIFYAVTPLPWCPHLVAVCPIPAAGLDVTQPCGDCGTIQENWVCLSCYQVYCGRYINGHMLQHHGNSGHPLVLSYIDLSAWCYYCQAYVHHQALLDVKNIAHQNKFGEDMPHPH
Method in brief: (§1)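 Deacetylation of 50 μM RHKK(Ac)AMC is measured after 1 h at 30 °C in pH 8.0 Tris buffer (1% DMSO, 1 mg/ml BSA). Developer ends the reaction; the post-plateau 360/460 nm signal is fitted to IC50, averaging replicate measurements.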

HDAC3 = target: T2, HDAC3 (Homo sapiens, UniProt O15379); assay: HDAC3 inhibition, full IC50 measurement (Reaction Biology; fluorogenic p53 peptide RHKK(Ac)AMC)
T2 construct: purchased Reaction Biology Corporation (assay run by the CRO)
Method in brief: as §1

HDAC2 = target: T3, HDAC2 (Homo sapiens, UniProt Q92769); assay: Initial HDAC2 IC50 estimate (BPS Biosciences HDAC fluorogenic assay kit); details: Supplementary Dataset 2; read-out: HDAC2 activity (initial activity)
T3 construct: purchased Reaction Biology Corporation (assay run by the CRO)
Method in brief: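 Inhibition measured by kit-based fluorogenic HDAC activity assays, with each point in duplicate or triplicate. Values come from a full 1 µM–100 pM series (1:10 steps) or are range estimates from just 20 nM and 200 nM.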

T2 sequence (O15379 whole entry): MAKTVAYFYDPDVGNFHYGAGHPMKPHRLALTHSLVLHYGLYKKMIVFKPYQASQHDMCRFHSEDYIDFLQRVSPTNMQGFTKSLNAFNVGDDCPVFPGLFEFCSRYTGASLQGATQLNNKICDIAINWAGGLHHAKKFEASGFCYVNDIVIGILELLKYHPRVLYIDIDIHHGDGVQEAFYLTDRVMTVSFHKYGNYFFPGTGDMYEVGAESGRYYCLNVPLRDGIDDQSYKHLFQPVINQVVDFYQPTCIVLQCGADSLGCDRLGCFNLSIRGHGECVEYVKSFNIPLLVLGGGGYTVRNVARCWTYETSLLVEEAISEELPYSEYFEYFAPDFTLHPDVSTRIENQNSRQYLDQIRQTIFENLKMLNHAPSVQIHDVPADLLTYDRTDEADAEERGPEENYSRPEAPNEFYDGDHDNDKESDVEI
T2 sequence (Q9Y618 395-489 partner limits assumed): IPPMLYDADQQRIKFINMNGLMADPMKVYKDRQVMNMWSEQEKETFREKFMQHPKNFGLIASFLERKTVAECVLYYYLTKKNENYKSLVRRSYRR
T3 sequence (Q92769 whole entry): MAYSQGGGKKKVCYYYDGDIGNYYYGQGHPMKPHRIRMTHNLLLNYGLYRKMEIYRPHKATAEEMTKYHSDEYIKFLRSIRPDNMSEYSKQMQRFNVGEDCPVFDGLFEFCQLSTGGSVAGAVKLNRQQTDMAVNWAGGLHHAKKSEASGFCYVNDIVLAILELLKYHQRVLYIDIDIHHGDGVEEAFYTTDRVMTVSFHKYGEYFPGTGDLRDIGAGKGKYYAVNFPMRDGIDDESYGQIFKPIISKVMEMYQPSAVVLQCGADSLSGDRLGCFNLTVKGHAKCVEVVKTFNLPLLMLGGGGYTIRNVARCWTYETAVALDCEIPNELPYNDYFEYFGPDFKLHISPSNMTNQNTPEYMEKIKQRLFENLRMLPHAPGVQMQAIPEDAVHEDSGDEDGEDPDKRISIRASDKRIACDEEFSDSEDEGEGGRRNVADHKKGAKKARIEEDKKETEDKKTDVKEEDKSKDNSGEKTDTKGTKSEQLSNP

## N=C(N)NCCC[C@@H]1NC(=O)[C@H](Cc2c[nH]c3ccccc23)NC(=O)[C@H](CC(=O)O)NC(=O)[C@@H](CO)NC(=O)[C@H](Cc2c[nH]c3ccccc23)NC(=O)[C@H](CCCCCS)NC(=O)[C@H](CCC(N)=O)NC1=O [des4.1.0, SHA-Trp-dSer-Asp-Trp-Arg-Gln] (HELM PEPTIDE1{D.W.R.Q.[O=C([C@H](CCCCCS)N[*:1])[*:2]].W.[dS]}$PEPTIDE1,PEPTIDE1,1:R1-7:R2$$$V2.0)
HDAC6; Conc. 1.00E-05 M, t1
  HDAC6 activity raw data (signal): 7877
HDAC6; Conc. 1.00E-05 M, t2
  HDAC6 activity raw data (signal): -8060
HDAC6; Conc. 1.11E-06 M, t1
  HDAC6 activity raw data (signal): 16871
HDAC6; Conc. 1.11E-06 M, t2
  HDAC6 activity raw data (signal): 12343
HDAC6; Conc. 1.23E-07 M, t1
  HDAC6 activity raw data (signal): 204372
HDAC6; Conc. 1.23E-07 M, t2
  HDAC6 activity raw data (signal): 163263
HDAC6; Conc. 1.37E-08 M, t1
  HDAC6 activity raw data (signal): 1871464
HDAC6; Conc. 1.37E-08 M, t2
  HDAC6 activity raw data (signal): 1633652
HDAC6; Conc. 1.52E-09 M, t1
  HDAC6 activity raw data (signal): 2518833
HDAC6; Conc. 1.52E-09 M, t2
  HDAC6 activity raw data (signal): 2655286
HDAC6; Conc. 3.33E-06 M, t1
  HDAC6 activity raw data (signal): 8242
HDAC6; Conc. 3.33E-06 M, t2
  HDAC6 activity raw data (signal): -3634
HDAC6; Conc. 3.70E-07 M, t1
  HDAC6 activity raw data (signal): 49535
HDAC6; Conc. 3.70E-07 M, t2
  HDAC6 activity raw data (signal): 45420
HDAC6; Conc. 4.12E-08 M, t1
  HDAC6 activity raw data (signal): 772837
HDAC6; Conc. 4.12E-08 M, t2
  HDAC6 activity raw data (signal): 534957
HDAC6; Conc. 4.57E-09 M, t1
  HDAC6 activity raw data (signal): 2466106
HDAC6; Conc. 4.57E-09 M, t2
  HDAC6 activity raw data (signal): 2168070
HDAC6; Conc. 5.08E-10 M, t1
  HDAC6 activity raw data (signal): 2603168
HDAC6; Conc. 5.08E-10 M, t2
  HDAC6 activity raw data (signal): 2401605
HDAC3; Conc. 1.00E-05 M, t1
  HDAC3 activity raw data (signal): -1388
HDAC3; Conc. 1.00E-05 M, t2
  HDAC3 activity raw data (signal): 157
HDAC3; Conc. 1.11E-06 M, t1
  HDAC3 activity raw data (signal): 49544
HDAC3; Conc. 1.11E-06 M, t2
  HDAC3 activity raw data (signal): 53052
HDAC3; Conc. 1.23E-07 M, t1
  HDAC3 activity raw data (signal): 403506
HDAC3; Conc. 1.23E-07 M, t2
  HDAC3 activity raw data (signal): 392664
HDAC3; Conc. 1.37E-08 M, t1
  HDAC3 activity raw data (signal): 878874
HDAC3; Conc. 1.37E-08 M, t2
  HDAC3 activity raw data (signal): 905094
HDAC3; Conc. 1.52E-09 M, t1
  HDAC3 activity raw data (signal): 1051534
HDAC3; Conc. 1.52E-09 M, t2
  HDAC3 activity raw data (signal): 1009763
HDAC3; Conc. 3.33E-06 M, t1
  HDAC3 activity raw data (signal): 16525
HDAC3; Conc. 3.33E-06 M, t2
  HDAC3 activity raw data (signal): 4898
HDAC3; Conc. 3.70E-07 M, t1
  HDAC3 activity raw data (signal): 191695
HDAC3; Conc. 3.70E-07 M, t2
  HDAC3 activity raw data (signal): 162137
HDAC3; Conc. 4.12E-08 M, t1
  HDAC3 activity raw data (signal): 681441
HDAC3; Conc. 4.12E-08 M, t2
  HDAC3 activity raw data (signal): 656036
HDAC3; Conc. 4.57E-09 M, t1
  HDAC3 activity raw data (signal): 1007447
HDAC3; Conc. 4.57E-09 M, t2
  HDAC3 activity raw data (signal): 1022661
HDAC3; Conc. 5.08E-10 M, t1
  HDAC3 activity raw data (signal): 1094681
HDAC3; Conc. 5.08E-10 M, t2
  HDAC3 activity raw data (signal): 1129520
HDAC2
  IC50: 100 nM
